Measurements reported in ChEMBL document CHEMBL1146886, “Antibacterial activity of pyrrolopyridine-substituted oxazolidinones: synthesis and in vitro SAR of various C-5 acetamide replacements” (2006).
Converted amounts (≈) assume the structure as drawn.

Legend:
Format in all cases: functional
Enterococcus faecium = assay: Antibacterial activity against gram positive vancomycin-resistant Enterococcus faecium OC 3312
Staphylococcus aureus [1] = assay: Antibacterial activity against gram positive methicillin-resistant Staphylococcus aureus OC 2878
Staphylococcus aureus [2] = assay: Antibacterial activity against gram positive Staphylococcus aureus Smith OC 4172 in presence of 50% mouse serum
Enterococcus faecalis = assay: Antibacterial activity against gram positive vancomycin-susceptible Enterococcus faecalis ATCC 29212
Staphylococcus aureus [3] = assay: Antibacterial activity against gram positive methicillin-susceptible Staphylococcus aureus Smith OC 4172 by broth microdilution assay

CC(=O)NC[C@H]1CN(c2ccc(N3CCOCC3)c(F)c2)C(=O)O1 [LINEZOLID]
MIC (Enterococcus faecium): 2 µg/mL (≈ 5.93 µM)
MIC (Staphylococcus aureus [1]): 1 µg/mL (≈ 2.96 µM)

O=C(NC[C@H]1CN(c2ccc(N3Cc4cccnc4C3)c(F)c2)C(=O)O1)C1CCC1
MIC (Enterococcus faecium): 8 µg/mL (≈ 19.5 µM)
MIC (Staphylococcus aureus [2]): 32 µg/mL
MIC (Staphylococcus aureus [1]): 4 µg/mL (≈ 9.75 µM)
MIC (Enterococcus faecalis): 8 µg/mL (≈ 19.5 µM)
MIC (Staphylococcus aureus [3]): 8 µg/mL (≈ 19.5 µM)

CS(=O)(=O)NC[C@H]1CN(c2ccc(-n3cc4cccnc4c3)c(F)c2)C(=O)O1
MIC (Enterococcus faecium): > 64 µg/mL
MIC (Staphylococcus aureus [2]): > 64 µg/mL
MIC (Staphylococcus aureus [1]): > 64 µg/mL
MIC (Enterococcus faecalis): > 64 µg/mL
MIC (Staphylococcus aureus [3]): > 64 µg/mL

N#Cc1ccc(OC[C@H]2CN(c3ccc(-n4cc5cccnc5c4)c(F)c3)C(=O)O2)nc1
MIC (Enterococcus faecium): > 64 µg/mL
MIC (Staphylococcus aureus [2]): > 128 µg/mL
MIC (Staphylococcus aureus [1]): > 64 µg/mL
MIC (Enterococcus faecalis): > 32 µg/mL
MIC (Staphylococcus aureus [3]): > 128 µg/mL

COC(=O)NC[C@H]1CN(c2ccc(-n3cc4cccnc4c3)c(F)c2)C(=O)O1
MIC (Enterococcus faecium): 16 µg/mL (≈ 41.6 µM)
MIC (Staphylococcus aureus [2]): 32 µg/mL
MIC (Staphylococcus aureus [1]): 16 µg/mL (≈ 41.6 µM)
MIC (Enterococcus faecalis): 16 µg/mL (≈ 41.6 µM)
MIC (Staphylococcus aureus [3]): 16 µg/mL (≈ 41.6 µM)

O=C1O[C@@H](Cn2ccccc2=O)CN1c1ccc(N2Cc3cccnc3C2)c(F)c1
MIC (Enterococcus faecium): > 32 µg/mL
MIC (Staphylococcus aureus [2]): 64 µg/mL
MIC (Staphylococcus aureus [1]): 16 µg/mL (≈ 39.4 µM)
MIC (Enterococcus faecalis): > 32 µg/mL
MIC (Staphylococcus aureus [3]): > 32 µg/mL

O=C(NC[C@H]1CN(c2ccc(N3Cc4cccnc4C3)c(F)c2)C(=O)O1)C1CC1
MIC (Enterococcus faecium): 2 µg/mL (≈ 5.05 µM)
MIC (Staphylococcus aureus [2]): 4 µg/mL
MIC (Staphylococcus aureus [1]): 2 µg/mL (≈ 5.05 µM)
MIC (Enterococcus faecalis): 2 µg/mL (≈ 5.05 µM)
MIC (Staphylococcus aureus [3]): 2 µg/mL (≈ 5.05 µM)

CC(=O)NC[C@H]1CN(c2ccc(-n3cc4cccnc4c3)c(F)c2)C(=O)O1
MIC (Enterococcus faecium): 1 µg/mL (≈ 2.71 µM)
MIC (Staphylococcus aureus [2]): 2 µg/mL
MIC (Staphylococcus aureus [1]): 0.5 µg/mL (≈ 1.36 µM)
MIC (Enterococcus faecalis): 1 µg/mL (≈ 2.71 µM)
MIC (Staphylococcus aureus [3]): 1 µg/mL (≈ 2.71 µM)

CS/C(=N\C#N)NC[C@H]1CN(c2ccc(N3Cc4cccnc4C3)c(F)c2)C(=O)O1
MIC (Enterococcus faecium): 2 µg/mL (≈ 4.69 µM)
MIC (Staphylococcus aureus [2]): 8 µg/mL
MIC (Staphylococcus aureus [1]): 2 µg/mL (≈ 4.69 µM)
MIC (Enterococcus faecalis): 4 µg/mL (≈ 9.38 µM)
MIC (Staphylococcus aureus [3]): 2 µg/mL (≈ 4.69 µM)

CS/C(=N/C#N)NC[C@H]1CN(c2ccc(-n3cc4cccnc4c3)c(F)c2)C(=O)O1
MIC (Enterococcus faecium): 8 µg/mL (≈ 18.8 µM)
MIC (Staphylococcus aureus [2]): 64 µg/mL
MIC (Staphylococcus aureus [1]): 8 µg/mL (≈ 18.8 µM)
MIC (Enterococcus faecalis): 8 µg/mL (≈ 18.8 µM)
MIC (Staphylococcus aureus [3]): 8 µg/mL (≈ 18.8 µM)

Cc1cccc(OC[C@H]2CN(c3ccc(-n4cc5cccnc5c4)c(F)c3)C(=O)O2)n1
MIC (Enterococcus faecium): > 128 µg/mL
MIC (Staphylococcus aureus [2]): > 128 µg/mL
MIC (Staphylococcus aureus [1]): > 64 µg/mL
MIC (Enterococcus faecalis): > 64 µg/mL
MIC (Staphylococcus aureus [3]): > 128 µg/mL

N#Cc1ccc(OC[C@H]2CN(c3ccc(N4Cc5cccnc5C4)c(F)c3)C(=O)O2)nc1
MIC (Enterococcus faecium): > 64 µg/mL
MIC (Staphylococcus aureus [2]): > 64 µg/mL
MIC (Staphylococcus aureus [1]): > 64 µg/mL
MIC (Enterococcus faecalis): > 16 µg/mL
MIC (Staphylococcus aureus [3]): > 64 µg/mL

O=C1O[C@@H](C/N=C/NN[N+](=O)[O-])CN1c1ccc(N2Cc3cccnc3C2)c(F)c1
MIC (Enterococcus faecium): 8 µg/mL (≈ 19.3 µM)
MIC (Staphylococcus aureus [2]): 16 µg/mL
MIC (Staphylococcus aureus [1]): 8 µg/mL (≈ 19.3 µM)
MIC (Enterococcus faecalis): 16 µg/mL (≈ 38.5 µM)
MIC (Staphylococcus aureus [3]): 8 µg/mL (≈ 19.3 µM)

O=C1O[C@@H](COc2cnsn2)CN1c1ccc(-n2cc3cccnc3c2)c(F)c1
MIC (Enterococcus faecium): 4 µg/mL (≈ 9.72 µM)
MIC (Staphylococcus aureus [2]): 16 µg/mL
MIC (Staphylococcus aureus [1]): 2 µg/mL (≈ 4.86 µM)
MIC (Enterococcus faecalis): 4 µg/mL (≈ 9.72 µM)
MIC (Staphylococcus aureus [3]): 8 µg/mL (≈ 19.4 µM)

O=C1O[C@@H](Cn2ccccc2=O)CN1c1ccc(-n2cc3cccnc3c2)c(F)c1
MIC (Enterococcus faecium): > 128 µg/mL
MIC (Staphylococcus aureus [2]): > 128 µg/mL
MIC (Staphylococcus aureus [1]): > 128 µg/mL
MIC (Enterococcus faecalis): > 128 µg/mL
MIC (Staphylococcus aureus [3]): > 128 µg/mL

CCOC(=O)NC[C@H]1CN(c2ccc(N3Cc4cccnc4C3)c(F)c2)C(=O)O1
MIC (Enterococcus faecium): 8 µg/mL (≈ 20 µM)
MIC (Staphylococcus aureus [2]): 64 µg/mL
MIC (Staphylococcus aureus [1]): 4 µg/mL (≈ 9.99 µM)
MIC (Enterococcus faecalis): 8 µg/mL (≈ 20 µM)
MIC (Staphylococcus aureus [3]): 8 µg/mL (≈ 20 µM)

O=C1O[C@@H](COc2ccccn2)CN1c1ccc(N2Cc3cccnc3C2)c(F)c1
MIC (Enterococcus faecium): > 64 µg/mL
MIC (Staphylococcus aureus [2]): > 128 µg/mL
MIC (Staphylococcus aureus [1]): 32 µg/mL (≈ 78.7 µM)
MIC (Enterococcus faecalis): > 64 µg/mL
MIC (Staphylococcus aureus [3]): > 128 µg/mL

CS(=O)(=O)NC[C@H]1CN(c2ccc(N3Cc4cccnc4C3)c(F)c2)C(=O)O1
MIC (Enterococcus faecium): 4 µg/mL (≈ 9.84 µM)
MIC (Staphylococcus aureus [2]): 16 µg/mL
MIC (Staphylococcus aureus [1]): 2 µg/mL (≈ 4.92 µM)
MIC (Enterococcus faecalis): 8 µg/mL (≈ 19.7 µM)
MIC (Staphylococcus aureus [3]): 4 µg/mL (≈ 9.84 µM)

O=C(CO)NC[C@H]1CN(c2ccc(N3Cc4cccnc4C3)c(F)c2)C(=O)O1
MIC (Enterococcus faecium): 16 µg/mL (≈ 41.4 µM)
MIC (Staphylococcus aureus [2]): 32 µg/mL
MIC (Staphylococcus aureus [1]): 16 µg/mL (≈ 41.4 µM)
MIC (Enterococcus faecalis): 32 µg/mL (≈ 82.8 µM)
MIC (Staphylococcus aureus [3]): 32 µg/mL (≈ 82.8 µM)

O=C(NC[C@H]1CN(c2ccc(-n3cc4cccnc4c3)c(F)c2)C(=O)O1)C1CC1
MIC (Enterococcus faecium): 8 µg/mL (≈ 20.3 µM)
MIC (Staphylococcus aureus [2]): 16 µg/mL
MIC (Staphylococcus aureus [1]): 8 µg/mL (≈ 20.3 µM)
MIC (Enterococcus faecalis): 16 µg/mL (≈ 40.6 µM)
MIC (Staphylococcus aureus [3]): 8 µg/mL (≈ 20.3 µM)

CC(=O)OCC(=O)NC[C@H]1CN(c2ccc(N3Cc4cccnc4C3)c(F)c2)C(=O)O1
MIC (Enterococcus faecium): 16 µg/mL (≈ 37.3 µM)
MIC (Staphylococcus aureus [2]): 32 µg/mL
MIC (Staphylococcus aureus [1]): 128 µg/mL (≈ 299 µM)
MIC (Enterococcus faecalis): 16 µg/mL (≈ 37.3 µM)
MIC (Staphylococcus aureus [3]): 32 µg/mL (≈ 74.7 µM)

CC(=O)NC[C@H]1CN(c2ccc(N3Cc4cccnc4C3)c(F)c2)C(=O)O1
MIC (Enterococcus faecium): 0.5 µg/mL (≈ 1.35 µM)
MIC (Staphylococcus aureus [2]): 1 µg/mL
MIC (Staphylococcus aureus [1]): 0.25 µg/mL (≈ 0.675 µM)
MIC (Enterococcus faecalis): 0.5 µg/mL (≈ 1.35 µM)
MIC (Staphylococcus aureus [3]): 0.5 µg/mL (≈ 1.35 µM)

O=C1O[C@@H](COc2cnccn2)CN1c1ccc(N2Cc3cccnc3C2)c(F)c1
MIC (Enterococcus faecium): > 32 µg/mL
MIC (Staphylococcus aureus [2]): > 32 µg/mL
MIC (Staphylococcus aureus [1]): > 32 µg/mL
MIC (Enterococcus faecalis): > 32 µg/mL
MIC (Staphylococcus aureus [3]): > 32 µg/mL

O=C1O[C@@H](C/N=C/NN[N+](=O)[O-])CN1c1ccc(-n2cc3cccnc3c2)c(F)c1
MIC (Enterococcus faecium): 32 µg/mL (≈ 77.4 µM)
MIC (Staphylococcus aureus [2]): 128 µg/mL
MIC (Staphylococcus aureus [1]): > 128 µg/mL
MIC (Enterococcus faecalis): 32 µg/mL (≈ 77.4 µM)
MIC (Staphylococcus aureus [3]): 64 µg/mL (≈ 155 µM)

C/C(=N\C#N)NC[C@H]1CN(c2ccc(N3Cc4cccnc4C3)c(F)c2)C(=O)O1
MIC (Enterococcus faecium): 4 µg/mL (≈ 10.1 µM)
MIC (Staphylococcus aureus [2]): 8 µg/mL
MIC (Staphylococcus aureus [1]): 2 µg/mL (≈ 5.07 µM)
MIC (Enterococcus faecalis): 4 µg/mL (≈ 10.1 µM)
MIC (Staphylococcus aureus [3]): 2 µg/mL (≈ 5.07 µM)

CCC(=O)NC[C@H]1CN(c2ccc(N3Cc4cccnc4C3)c(F)c2)C(=O)O1
MIC (Enterococcus faecium): 2 µg/mL (≈ 5.2 µM)
MIC (Staphylococcus aureus [2]): 4 µg/mL
MIC (Staphylococcus aureus [1]): 1 µg/mL (≈ 2.6 µM)
MIC (Enterococcus faecalis): 2 µg/mL (≈ 5.2 µM)
MIC (Staphylococcus aureus [3]): 2 µg/mL (≈ 5.2 µM)

O=C1O[C@@H](COc2cnccn2)CN1c1ccc(-n2cc3cccnc3c2)c(F)c1
MIC (Enterococcus faecium): 64 µg/mL (≈ 158 µM)
MIC (Staphylococcus aureus [2]): > 32 µg/mL
MIC (Staphylococcus aureus [1]): 8 µg/mL (≈ 19.7 µM)
MIC (Enterococcus faecalis): 64 µg/mL (≈ 158 µM)
MIC (Staphylococcus aureus [3]): > 32 µg/mL

Cc1cccc(OC[C@H]2CN(c3ccc(N4Cc5cccnc5C4)c(F)c3)C(=O)O2)n1
MIC (Enterococcus faecium): > 64 µg/mL
MIC (Staphylococcus aureus [2]): > 128 µg/mL
MIC (Staphylococcus aureus [1]): > 128 µg/mL
MIC (Enterococcus faecalis): > 32 µg/mL
MIC (Staphylococcus aureus [3]): > 128 µg/mL

COC(=O)NC[C@H]1CN(c2ccc(N3Cc4cccnc4C3)c(F)c2)C(=O)O1
MIC (Enterococcus faecium): 2 µg/mL (≈ 5.18 µM)
MIC (Staphylococcus aureus [2]): 16 µg/mL
MIC (Staphylococcus aureus [1]): 2 µg/mL (≈ 5.18 µM)
MIC (Enterococcus faecalis): 4 µg/mL (≈ 10.4 µM)
MIC (Staphylococcus aureus [3]): 4 µg/mL (≈ 10.4 µM)

O=C1O[C@@H](COc2ccon2)CN1c1ccc(-n2cc3cccnc3c2)c(F)c1
MIC (Enterococcus faecium): 8 µg/mL (≈ 20.3 µM)
MIC (Staphylococcus aureus [2]): 64 µg/mL
MIC (Staphylococcus aureus [1]): 4 µg/mL (≈ 10.1 µM)
MIC (Enterococcus faecalis): 16 µg/mL (≈ 40.6 µM)
MIC (Staphylococcus aureus [3]): 8 µg/mL (≈ 20.3 µM)

O=C1O[C@@H](COc2cnsn2)CN1c1ccc(N2Cc3cccnc3C2)c(F)c1
MIC (Enterococcus faecium): 2 µg/mL (≈ 4.84 µM)
MIC (Staphylococcus aureus [2]): 8 µg/mL
MIC (Staphylococcus aureus [1]): 1 µg/mL (≈ 2.42 µM)
MIC (Enterococcus faecalis): 8 µg/mL (≈ 19.4 µM)
MIC (Staphylococcus aureus [3]): 2 µg/mL (≈ 4.84 µM)

O=C1O[C@@H](COc2ccon2)CN1c1ccc(N2Cc3cccnc3C2)c(F)c1
MIC (Enterococcus faecium): 16 µg/mL (≈ 40.4 µM)
MIC (Staphylococcus aureus [2]): > 64 µg/mL
MIC (Staphylococcus aureus [1]): 8 µg/mL (≈ 20.2 µM)
MIC (Enterococcus faecalis): > 32 µg/mL
MIC (Staphylococcus aureus [3]): > 32 µg/mL

CCC(=O)NC[C@H]1CN(c2ccc(-n3cc4cccnc4c3)c(F)c2)C(=O)O1
MIC (Enterococcus faecium): 16 µg/mL (≈ 41.8 µM)
MIC (Staphylococcus aureus [2]): 32 µg/mL
MIC (Staphylococcus aureus [1]): 16 µg/mL (≈ 41.8 µM)
MIC (Enterococcus faecalis): 16 µg/mL (≈ 41.8 µM)
MIC (Staphylococcus aureus [3]): 32 µg/mL (≈ 83.7 µM)
